The term inhibition denotes the drop in the measured response relative to a control, in per cent.

The target in test [1] is T1, Human recombinant enteropeptidase (Homo sapiens, UniProt P98073).
T1 construct: purchased ITSI-Biosciences LLC #REN-260
In words: Human enteropeptidase inhibitory activity. Conditions: 3.3 μM test compound; fluorescence intensity at 2 hours after start of reaction; read-out: Inhibition rate at 3.3 μM. It counts as biochemical. How it is done:
Human recombinant enteropeptidase (#REN-260, ITSI-Biosciences LLC) was diluted with an assay buffer (50 mM Tricine, pH 8.0, 0.01 (w/v) %, Tween 20, 10 mM CaCl2) to prepare a 24 mU/mL enzyme solution. Subsequently, 5FAM-Abu-Gly-Asp-Asp-Asp-Lys-Ile-Val-Gly-Gly-Lys(CPQ2)-Lys-Lys-NH2 (purity: 97.2%, CPC Scientific Inc., SEQ ID NO: 1) was diluted with the assay buffer to prepare a 2.1 μM substrate solution. A test compound is dissolved in DMSO into a 1 mM solution, and the solution was diluted by 100-fold with the assay buffer to give a compound solution. To a 384-well black plate (#784076, Greiner Bio-One), 5 μL of the compound solution and 5 μL of the substrate solution were added and mixed, and 5 μL of the enzyme solution was then added to the mixture, followed by mixing to start the reaction. The fluorescence intensity was measured with a fluorescence plate reader EnVision (The Perkin-Elmer Corp.) at an excitation wavelength of 485 nm and a fluorescence wavelength of 535 nm. The same reaction as above except that the test compound was not contained was performed (test compound non-addition group). Furthermore, the same reaction as above except that the test compound and the enzyme were not contained was performed (control group). The inhibition rate was calculated using the fluorescence intensity at 2 hours after the start of the reaction by the following expression: Inhibition rate (%)=(1-((fluorescence intensity of test compound addition group)−(fluorescence intensity of control group))/((fluorescence intensity of test compound non-addition group)−(fluorescence intensity of control group)))×100

For test [2], the system named is DIO mouse. In words: Anti-obesity effect test using DIO mouse. It counts as in vivo. Conditions: DIO mice, group average. Here is the method: Diet-induced obesity (DIO) mice (D12079B diet, male, 32-week old) were orally administered with a 0.5% methyl cellulose suspension containing a test compound (30 mg/kg) (compound administration group, six mice per group) or a 0.5% methyl cellulose suspension (compound non-administration group (vehicle), six mice per group) once a day for eight days. The averages of the body weights at the start of administration and after continuous administration for eight days are shown below.

Test [3] concerns HFD-fed mouse. As to the kind of experiment: Fecal protein concentration-increasing test using HFD-fed mouse. It counts as in vivo. Conditions: HFD-fed mice, 10 mg/kg oral, whole feces of first day of administration, group average. Here is the method:
High fat diet-fed (HFD-fed) mice (D12079B diet, male, 19-week old) were orally administered with a 0.5% methyl cellulose suspension containing a test compound (10 mg/kg) (compound administration group, six mice per group) or a 0.5% methyl cellulose suspension (compound non-administration group (vehicle), five mice per group), and whole feces were collected on the first day of administration. Dried feces were dissolved in 0.5 N NaOH, followed by centrifugation at 12,000 rpm. The protein concentration in the supernatant was then quantitatively measured (Lowry method), and the amount of protein contained in 1 g of feces was calculated as the fecal protein concentration (mg/g feces). The average of each group is shown below.

The structures appear in SMILES notation. Structures can show the parent of a compound that is named as a salt.

T1 sequence (P98073 whole entry): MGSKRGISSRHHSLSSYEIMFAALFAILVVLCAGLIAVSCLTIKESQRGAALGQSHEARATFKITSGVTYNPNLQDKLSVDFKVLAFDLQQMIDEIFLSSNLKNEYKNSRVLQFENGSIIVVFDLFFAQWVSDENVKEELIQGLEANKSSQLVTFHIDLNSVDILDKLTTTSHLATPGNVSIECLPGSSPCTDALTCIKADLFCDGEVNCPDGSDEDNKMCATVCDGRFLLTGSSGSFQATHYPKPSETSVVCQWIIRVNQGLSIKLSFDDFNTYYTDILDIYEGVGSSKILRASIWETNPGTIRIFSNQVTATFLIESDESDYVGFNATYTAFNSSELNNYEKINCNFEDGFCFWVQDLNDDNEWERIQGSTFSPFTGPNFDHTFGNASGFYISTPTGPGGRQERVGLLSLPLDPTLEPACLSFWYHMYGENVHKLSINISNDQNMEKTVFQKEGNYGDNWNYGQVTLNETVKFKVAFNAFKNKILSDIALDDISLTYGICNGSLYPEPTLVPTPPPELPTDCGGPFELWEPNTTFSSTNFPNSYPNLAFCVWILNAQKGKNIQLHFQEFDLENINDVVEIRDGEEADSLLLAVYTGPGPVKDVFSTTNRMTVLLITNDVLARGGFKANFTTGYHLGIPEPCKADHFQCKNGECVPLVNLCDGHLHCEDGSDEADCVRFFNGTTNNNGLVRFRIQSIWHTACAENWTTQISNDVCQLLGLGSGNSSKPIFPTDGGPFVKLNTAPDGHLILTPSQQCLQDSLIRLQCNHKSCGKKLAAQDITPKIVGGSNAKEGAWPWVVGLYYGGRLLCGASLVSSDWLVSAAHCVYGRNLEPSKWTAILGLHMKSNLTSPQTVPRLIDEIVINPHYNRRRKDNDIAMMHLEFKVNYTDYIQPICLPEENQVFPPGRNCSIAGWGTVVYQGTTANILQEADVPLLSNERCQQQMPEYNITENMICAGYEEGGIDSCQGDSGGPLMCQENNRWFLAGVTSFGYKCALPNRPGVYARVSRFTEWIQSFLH

`N=C(N)Nc1ccc(C(=O)Oc2cc3c(c(C(=O)NCS(=O)(=O)O)c2)CCO3)cc1` [Example 3, (((6-((4-carbamimidamindobenzoyl)oxy)-2,3-dihydro-1-benzofuran-4-yl)carbonyl)amino)methanesulfonic acid]: the inhibition at 3.3 µM in test [1] worked out at 101%.
For `CC1(C)Cc2c(cc(OC(=O)c3ccc(NC(=N)N)cc3)cc2C2=NOC(CC(=O)O)(C(=O)O)C2)O1` (stereo not drawn) [Example 5, 3-(6-((4-carbamimidamindobenzoyl)oxy)-2,2-dimethyl-2,3-dihydro-1-benzofuran-4-yl)-5-(carboxymethyl)-4,5-dihydro-1,2-oxazole-5-carboxylic acid], the inhibition at 3.3 µM in test [1] is 100%.
The same measure, in the same setting: next, `N=C(N)Nc1ccc(C(=O)Oc2cc3c(c(C(=O)NCCCS(=O)(=O)O)c2)CCO3)cc1` [Example 2, 3-(((6-((4-carbamimidamindobenzoyl)oxy)-2,3-dihydro-1-benzofuran-4-yl)carbonyl)amino)propane-1-sulfonic acid]: 101%; `N=C(N)Nc1ccc(C(=O)Oc2cc3c(c(C4=NOC(CC(=O)O)(C(=O)O)C4)c2)CCO3)cc1` (stereo not drawn) [Example 6, 3-(6-((4-Carbamimidamidobenzoyl)oxy)-2,3-dihydro-1-benzofuran-4-yl)-5-(carboxymethyl)-4,5-dihydro-1,2-oxazole-5-carboxylic acid]: 101%; `N=C(N)Nc1ccc(C(=O)Oc2cc3c(c(C(=O)NCP(=O)(O)O)c2)CCO3)cc1` [Example 4, ((((6-((4-Carbamimidamidobenzoyl)oxy)-2,3-dihydro-1-benzofuran-4-yl)carbonyl)amino)methyl)phosphonic acid hydrochloride]: 101%.
Regarding `N=C(N)Nc1ccc(C(=O)Oc2cc3c(c(C(=O)NCCS(=O)(=O)O)c2)CCO3)cc1` [Example 1, 2-(((6-((4-Carbamimidamidobenzoyl)oxy)-2,3-dihydro-1-benzofuran-4-yl)carbonyl)amino)ethanesulfonic acid], the “Body weight (g) After continuous administration for 8 days” value in test [2] (30 mg/kg oral once a day for eight days) was 42.8 g. In addition, the “Body weight (g) At start of administration” value in test [2] (30 mg/kg oral once a day, baseline) is given as 43.5 g. The compound further yielded a Fecal protein concentration in test [3] of 188.8 mg/g feces. Further, the inhibition at 3.3 µM in test [1] turned out to be 101%.

Source of the values: patent US10017487B2, “Fused heterocyclic compound” (Takeda Pharmaceutical Company Limited, priority 2015, dated 2018).
